Earlier results, collected in patent US20090209656A1, “DISINFECTION/SANITATION METHOD WHERE THE MATERIAL IS TREATED WITH A SOLUTION COMPRISING BENZYL ALCOHOL AND C2-3 ALCOHOL” (GE HEALTHCARE BIO-SCIENCES AB, priority 2006, published 2009).

Key:
[1] = long-term exposure
[2] = acute toxicity

OCc1ccccc1 [benzyl alcohol]
NOAEL [1]: > 400 mg/kg body weight/day | LD50 [2]: 1610 mg/kg body weight
